# Values quoted from earlier work as cited in patent US20170009119A1, “DIELECTRIC FLUID AND COOLANT MADE WITH BIOBASED BASE OIL” (Novvi LLC, priority 2014, published 2017).
# System: aquatic life
# Settings: European Directive 67/548/EEC
smiles,measurement,value
"c1ccc2c(c1)CCCC2 [tetralin, 1,2,3,4-tetrahydronaphthalene]",toxicity to aquatic life (code R51/53),toxic to aquatic life with long lasting effects
